Data set [1] deals with Staphylococcus aureus 209-P. In words: MIC, standard agar dilution method, Staphylococcus aureus 209-P. It is filed as cell-based. The following applies: Mueller Hinton agar, 18 hours, 37° C. On the procedure: (§1) Minimal inhibitory concentration (MIC) was determined by the standard agar dilution method of the Japan Society of Chemotherapy.
(§2) Compounds were dissolved in appropriate solvents (sterilized water for sodium salts and acetone-water [1:1] for free acids) and serial two-fold dilutions were made. Sodium salt of Cefazolin was chosen as the control compound.
(§3) One-ml aliquots of each dilution were mixed with 9 ml of Mueller Hinton gar in petri-dishes to make agar plates containing the compound at serially diluted concentrations. After agar hardened, plates were put in an incubator at 37° C. for 1.5-2 hours with the lids slightly open to evaporate acetone off the plates.
(§4) Test organisms were grown for 18 hours at 37° C. in Trypticase Soy broth and diluted in saline to approximately 10^6 colony forming units per ml. A loopful of each cell suspension was applied on the agar plate mentioned above and the plates were incubated for 18 hours at 37° C. before MIC was determined.
(§5) The results are shown in Table 2, wherein the compound of Example 5 was selected and used in a form of free carboxylic acid as set forth in the Example 5, Item (a).
(In general: In agar dilution the substance is mixed into plates at graded concentrations.)

For a further data set, the system named is Escherichia coli NIHJ. As to the kind of experiment: MIC, standard agar dilution method, Escherichia coli NIHJ. It counts as cell-based. The note with it: Escherichia coli NIHJ; Mueller Hinton agar, 18 hours, 37° C.; read-out: MIC. On the procedure: as §1, §2, §3, §4, §5
In data set [2] the test system is Klebsielle pneumoniae EK-6. In words: MIC, standard agar dilution method, Klebsielle pneumoniae EK-6. It is filed as cell-based. The note with it: Klebsielle pneumoniae EK-6; Mueller Hinton agar, 18 hours, 37° C.; read-out: MIC. The method, then: as §1, §2, §3, §4, §5
In another data set the test system is Proteus morganii EP-14. In words: MIC, standard agar dilution method, Proteus morganii EP-14. The following applies: Morganella morganii, EP14, Mueller Hinton agar, 18 hours, 37° C. It counts as cell-based. On the procedure:
as §1, §2, §3, §4, §5

Data set [3] deals with Pseudomonas aeruginosa EP-172. As to the kind of experiment: MIC, standard agar dilution method, Pseudomonas aeruginosa EP-172. It counts as cell-based. The note with it: EP172, Mueller Hinton agar, 18 hours, 37° C. On the procedure:
as §1, §2, §3, §4, §5

The subject of data set [4] is Serratia marcescens ES-75. In words: MIC, standard agar dilution method, Serratia marcescens ES-75. It counts as cell-based. The following applies: ES75, Mueller Hinton agar, 18 hours, 37° C. On the procedure:
as §1, §2, §3, §4, §5

Another data set relates to Proteus bulgaris E-18. In words: MIC, standard agar dilution method, Proteus bulgaris E-18. It is filed as cell-based. The following applies: Mueller Hinton agar, 18 hours, 37° C. On the procedure: as §1, §2, §3, §4, §5
Data set [5] in a line: acute toxicity, LD50 (mouse, oral). The following applies: in vivo. The source says:
The acute toxicity values [LD50 (mouse, oral)] for the following compounds of this invention were over 5 g/kg: […]

Values after ≈ are worked out from the molar mass of the structure shown.

As usually defined, the MIC is the smallest concentration in the dilution series that meets the test's criterion for growth inhibition. The LD50 is the dose expected to kill half of the subjects tested.

In the case of `CO[C@@]1(NC(=O)[C@H](NC(=O)c2coc3cc(OC(=O)OCC(Cl)(Cl)Cl)c(OC(=O)OCC(Cl)(Cl)Cl)cc3c2=O)c2ccc(O)cc2)C(=O)N2C(C(=O)O)=C(CSc3nnnn3C)CS[C@@H]21` [Example 23, 7β-[D-2-(6,7-Bis(2,2,2-trichloroethoxycarbonyloxy)chromone-3-carboxamido)-2-(4-hydroxyphenyl)-acetamido]-7α-methoxy-3-(1-methyl-5-tetrazolyl)thiomethyl-3-cephem-4-carboxylic acid], the minimal inhibitory concentration (MIC) is 3.13 µg/mL (≈ 2.95 µM) in data set [1]; 6.25 µg/mL (≈ 5.88 µM) with Escherichia coli NIHJ; at most 0.1 µg/mL in data set [2]; 6.25 µg/mL (≈ 5.88 µM) against Proteus morganii EP-14; 0.8 µg/mL (≈ 0.753 µM) in data set [3]; 0.2 µg/mL (≈ 0.188 µM) in data set [4]. The molecule further showed an MIC against Proteus bulgaris E-18 of 0.8 µg/mL (≈ 0.753 µM). For the same molecule, in data set [5], the LD50 was above 5000 mg/kg.

(Values after patent US4415567A, “7α-Methoxycephalosporin derivatives, and antibacterial drugs containing the same” (Eisai Co., Ltd., priority 1980, dated 1983).)
